Where two headings read alike, the source gives them in different places.
Columns and labels:
[1] = system: Different melanoma cell lines with various mutations; assay: Viability test with CRO15, melanoma cell lines with various mutations; assay type: cell-based, human; details: 5 μM, 48 hours; FIG. 1C
Source text: Different melanoma cell lines were purchased from the American Tissue Culture Collection: A375 and WM9 cells are mutated on B-Raf, CDKN2A and PTEN proteins; SKmel28 cells are mutated on B-Raf and P53 proteins; 1205Lu cells are mutated on B-Raf and PTEN proteins; G-361 cells are mutated on B-Raf and CDKN2A proteins; C8161 cells are mutated on B-Raf and K-Ras proteins; WM3912 cells are mutated on B-Raf and CDKN2A proteins; MeWo cells are mutated on P53 and CDKN2A proteins; WM3918 presents no mutations on characteristic proteins.
(§1) For trypan blue staining, […] of cells (melanoma and normal human cells) were aseptically transferred to a 1.5 mL clear Eppendorf tube and incubated for 3 min at room temperature with an equal volume of 0.4% trypan blue solution. Viable cells were counted and the results are expressed as the percentage of the value of control cells. All the experiments are performed 3 times in triplicate.
Different melanoma cell lines with various mutations, patient cells with various mutations and normal human cells, were treated with 5 μM of CRO15 for 48 hours or DMSO (Control). At the end of stimulation, viable cells were counted using the trypan blue dye exclusion method. The results are normalized as percentages compare to the control and data means±SEM of three independent experiments performed in triplicate *p<0.05; **p<0.01; ***p<0.001. […]

Melanoma cell line DR6 = assay: Viability test on double resistant cells to BRAF and MEK inhibitors; assay type: cell-based; details: 5 μM or 10 μM, 24 hours; FIG. 5
Description: as §1
Melanoma cell line DR6 resistant cells to B-Raf inhibitor (Vemurafenib=PLX4032) and to MEK inhibitor (Cobimetinib) were treated with DMSO (control), with 5 μM or 10 μM of CRO15 or with a combination of 1 μM of vemurafenib and 0.5 μM of cobimetinib. After 24 hours of stimulation, viable cells were counted using the trypan blue dye exclusion method. The results are normalized as percentages compare to the control. Error bars represents ±SEM of triplicate.

AMPK = assay: Western blot assays, A375 Sensitive cells; assay type: cell-based, human; details: 5 μM, 6 hr, 12 hr or 24 hr; FIG. 2
Description: Western blot analyses were performed as described (Lehraiki et al., 2014). Proteins were extracted in buffer containing 50 mmol/l Tris-HCl (pH 7.5), 15 mmol/1, NaCl, 1% Triton X-100, and 1× protease and phosphatase inhibitors. Briefly, cell lysates […] were separated by SDS-PAGE, transferred onto a polyvinylidene fluoride membrane (Millipore), and then exposed to the appropriate antibodies. Proteins were visualized with the ECL System from Amersham. The western blot analyses shown are representative of at least three independent experiments.
Western Blot analysis: A375 Sensitive cells were treated with 5 μM of CRO15 for different time (6 hr, 12 hr or 24 hr) or with DMSO (Control) for 24 hr.

patient melanoma cells = assay: Viability test with CRO15, patient melanoma cells; assay type: cell-based, human; details: 5 μM, 48 hours; FIG. 1D
Description: Fresh sterile tissues were obtained from surgical waste from patients diagnosed with metastatic melanoma at the Nice CHU hospital. Epidermal cell suspensions were obtained from foreskins of Caucasian children by overnight digestion in phosphate-buffered saline containing 0.5% dispase grade II at 4° C., followed by a 20 min digestion with 0.05% trypsin-0.02% EDTA in phosphate-buffered saline (V/V) at 37° C. Human primary melanocytes were grown in MCDB153 medium supplemented with 2% FCS, 0.4 μg/ml hydrocortisone, 5 μg/ml insulin, 16 nM phorbol-12 myristate 13-acetate, 1 ng/ml basic fibroblast growth factor, 10 μg/ml bovine pituitary extract and penicillin/streptomycin (100 U/ml/50 μg/ml). […]
as §1, with “All the experiments are performed 3 times in triplicate.” left out
Different melanoma cell lines with various mutations, patient cells with various mutations and normal human cells, were treated with 5 μM of CRO15 for 48 hours or DMSO (Control). At the end of stimulation, viable cells were counted using the trypan blue dye exclusion method. […]

A375 Sensitive cells = assay: Viability test, trypan blue exclusion, A375 Sensitive cells; assay type: cell-based, human; details: for viability at 5 µM / viability at 10 µM: viable cells as percentage of DMSO control
Procedure, shortened: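 A375 (B-Raf, CDKN2A, PTEN mutant) cells were exposed to compounds at 5.0 or 10 μM for 24 or 48 hr; CRO15 also at 0.5–50 μM for 48 hr or 5 μM for 2–48 hr; DMSO control. Viable cells were counted by trypan blue exclusion, as % of control. Three experiments in triplicate.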

For `Nc1nc(Nc2ccccc2SSc2ccccc2Nc2nc(N)nc(C(Cl)(Cl)Cl)n2)nc(C(Cl)(Cl)Cl)n1` [CRO15, N2,N2′-(disulfanediylbis(2,1-phenylene))bis(6-(trichloromethyl)-1,3,5-triazine-2,4-diamine)], the “viability of different melanoma cell lines with various mutations” value [1] was “induces a decrease of the viability”, the “cell viability of DR6 cells” value (Melanoma cell line DR6) was “induces a decrease of the cell viability” and the “activation of AMPK (western blot)” value (AMPK) was “induces an activation of AMPK”. The “viability of patient melanoma cells” value (patient melanoma cells) was “induces a decrease of the viability”, the “decrease of the viability compared with PLX4032” value (A375 Sensitive cells; 5 μM each, 48 hr, FIG. 1A) was “more important with CRO15 than with PLX4032” and the “cell viability of A375 S cells, kinetic” value (A375 Sensitive cells; 5 μM, 2 hr to 48 hr, FIG. 1A) was “induces a decrease of the viability of melanoma cells”. The “cell viability, A375 sensitive melanoma cells” value (A375 Sensitive cells; 5 μM, 48 hr, FIG. 4A) was “induces a decrease of the cell viability”, the “dose-response on melanoma cells viability” value (A375 Sensitive cells; 0.5-50 μM, 48 hr, FIG. 1B) was “dose-response relationship” and the viability at 5 µM (A375 Sensitive cells; Homo sapiens, A-375, 5 μM, 24 h, read-out: Viab A375 5 μM/ 24 h) was 36%. For the same molecule, the viability at 5 µM (A375 Sensitive cells; Homo sapiens, A-375, 5 μM, 48 h, read-out: Viab A375 5 μM/ 48 h) was 27%, the viability at 10 µM (A375 Sensitive cells; Homo sapiens, A-375, 24 h, read-out: Viab A375 10 μM/ 24 h) was 23% and the viability at 10 µM (A375 Sensitive cells; Homo sapiens, A-375, 48 h, read-out: Viab A375 10 μM/ 48 h) was 2.6%. It also gave an IC50 (A375 Sensitive cells; Homo sapiens, A-375, A375 Sensitive cells, 48 hr, read-out: IC50 of CRO15) of 3.75 µM.

— patent US11440906B2, “Biguanide derivatives and their rearrangement products for use in the treatment of cancer” (CENTRE NATIONAL DE LA RECHERCHE SCIENTIFIQUE, priority 2017, dated 2022)
